Target: Protein cereblon/Interleukin-1 receptor-associated kinase 4 (Homo sapiens, UniProt Q9NWZ3+Q96SW2)
Assay: PROTAC activity at CRBN/IRAK4 in human HEK293T cells assessed as induction of IRAK4 degradation measured after 24 hrs by immunoblotting analysis
Assay type: cell-based

Sequence of Protein cereblon/Interleukin-1 receptor-associated kinase 4 (Q9NWZ3 whole entry): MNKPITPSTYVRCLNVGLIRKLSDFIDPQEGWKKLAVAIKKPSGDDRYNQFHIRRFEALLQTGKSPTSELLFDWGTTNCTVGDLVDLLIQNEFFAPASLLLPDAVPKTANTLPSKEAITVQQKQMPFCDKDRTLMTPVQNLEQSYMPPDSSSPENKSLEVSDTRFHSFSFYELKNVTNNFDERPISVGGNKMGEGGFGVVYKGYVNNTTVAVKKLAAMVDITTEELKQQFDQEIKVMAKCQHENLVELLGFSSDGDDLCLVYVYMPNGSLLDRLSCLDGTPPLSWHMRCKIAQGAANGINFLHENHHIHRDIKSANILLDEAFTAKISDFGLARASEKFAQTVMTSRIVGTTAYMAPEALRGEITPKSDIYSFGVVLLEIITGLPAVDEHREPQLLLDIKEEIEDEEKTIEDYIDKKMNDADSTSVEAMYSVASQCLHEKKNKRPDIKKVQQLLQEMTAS
Sequence of Protein cereblon/Interleukin-1 receptor-associated kinase 4 (Q96SW2 whole entry): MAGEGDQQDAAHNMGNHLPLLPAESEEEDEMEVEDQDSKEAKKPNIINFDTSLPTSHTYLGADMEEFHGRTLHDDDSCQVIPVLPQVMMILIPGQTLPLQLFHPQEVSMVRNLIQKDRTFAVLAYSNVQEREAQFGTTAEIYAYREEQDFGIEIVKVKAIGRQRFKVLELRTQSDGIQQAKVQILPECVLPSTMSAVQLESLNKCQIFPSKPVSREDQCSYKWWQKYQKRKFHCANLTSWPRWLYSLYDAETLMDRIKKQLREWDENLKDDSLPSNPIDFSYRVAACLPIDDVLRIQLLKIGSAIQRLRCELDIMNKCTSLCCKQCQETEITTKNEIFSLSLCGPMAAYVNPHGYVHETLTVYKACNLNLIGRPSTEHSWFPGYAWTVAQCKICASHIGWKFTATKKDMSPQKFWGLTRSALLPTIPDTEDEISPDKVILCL

- DC50: 405 nM
SMILES: CC(C)Nc1cc(-n2ccc3cc(C#N)cnc32)ncc1C(=O)N[C@H]1CC[C@H](C(=O)NCCOCCNC(=O)COc2cccc3c2C(=O)N(C2CCC(=O)NC2=O)C3=O)CC1 (stereo partly specified)

Source: ChEMBL document CHEMBL5614465, “Discovery of the First Clinical Protein Degrader for the Treatment of Autoimmune Indications: Orally Bioavailable and Selective IRAK4 Degrader KT-474” (J Med Chem, 2024)
